Values joined by “and” are separate entries in the source; they are usually repeats but may differ in a detail not shown here. Identical values can stand only once.
Assays:
[1] = test system: DNA methylation of the am^RIP and ψ63 sequences; test: Southern blot analysis of DNA methylation in N. crassa (Dpn II vs Sau3AI digests); assay type: cell-based, Neurospora crassa; settings: 12 and 24 μM 5-AC; 0.33 and 3.3 μM TSA; 20, 39, 78, 160 and 310 μM Zebularine
Experimental: DNA was digested with Dpn II (D) or Sau3AI (S), fractionated by gel electrophoresis, transferred to a membrane and probed for am (FIG. 4A) or ψ63 (FIG. 4B) sequences. Dpn II and Sau3AI both recognize the sequence GATC, but Sau3AI fails to cleave if the C residue is methylated. Thus, differences between S and D lanes are indicative of DNA methylation.
The ramp symbols at the top of the figure represent increasing concentrations of drug. Drug concentrations were 12 and 24 μM 5-AC; 0.33 and 3.3 μM TSA; and 20, 39, 78, 160 and 310 μM Zebularine. The positions of selected size standards (kb) are indicated.
Southern hybridizations were performed on DNA samples (−1 μg) isolated from liquid cultures inoculated with 7×10^4 conidia/ml. DNA was digested with Dpn II (D) or Sau3AI (S), fractionated by gel electrophoresis, transferred to a nylon membrane and probed for am^RIP (FIG. 4A) or ψ63 (FIG. 4B) sequences. The restriction endonucleases Dpn II and-Sau3AI both recognize the sequence GATC, but Sau3AI fails to cleave if the C residue is methylated. Drug concentrations were […] 5-AC, 0.33 and 3.3 μM TSA, and […] Zebularine.
The positions of selected size standards (kb) and the origin (ori) are indicated. […] Differences between S and D lanes are indicative of DNA methylation.

p16 exon 2 = test: Ms-SNuPE quantitation of DNA methylation in T24 cells, p16 exon 2; assay type: cell-based, human; settings: for p16 Exon 2 Methylation (%): control 96
Experimental: (§1) The average methylation at defined CpG sites was quantitated using a Ms-SNuPE assay, as described by Gonzalgo and Jones (Nucleic Acids Res. 25:2529-2531, 1997) and U.S. Pat. No. 6,251,594. Briefly, genomic DNA (˜4 μg) was digested overnight with 4 units of EcoRI (Boehringer Mannheim) (p16 promoter/exon 1 and p16 exon 2; FIG. 9A) or with 4 units of RsaI (Boehringer Mannheim) (P3; FIG. 9B) to cut outside the region of interest.
(§2) After standard treatment with sodium bisulfite, a PCR product of the region was generated as template for top-strand methylation analysis. The sequences of the primers used for bisulfite-treated DNA amplification were as follows: […]
p16 exon 2: 94° C. for 3 minutes, 94° C. for 1 minute, 62° C. for 45 seconds, and 72° C. for 45 seconds for 40 cycles, with a final extension step at 72° C. for 10 minutes.
(§3) Duplicates of 4 μl of template were then added to 6 μl of mixture consisting of 1× PCR buffer, 1 μM final concentration primers, 1 μCi of [^32P]dCTP or dTTP, and 1 unit 1:1 Taq/TaqStart antibody (Clontech, Palo Alto, Calif.). Single nucleotide extension involved incubation at 95° C. for 1 minute, then 50° C. for 2 minutes, and finally 72° C. for 1 minute (p16 promoter/exon1 and P16 exon 2) and 95° C. for 1 minute, then 46° C. for 30 seconds, and finally 72° C. for 20 seconds (P3). The sequences for SNuPE primers were as follows: […]
(§4) After briefly spinning down the tubes, 4 μl of stop solution were added to the 10-μl reaction volume, and the samples were boiled for 5 minutes at 95° C. before loading 1.5 μl onto a 15% denaturing polyacrylamide gel (7 M urea). The gel was run at 90 W for 1.5 hours and then dried at 80° C. for 40 minutes. The gel was exposed to a phosphorimaging cassette for quantitation of the ratio of [^32P]dCTP versus [^32P]dTTP incorporation, and the quantitation of the percent methylation was averaged from three separate CpG sites. The gel was then exposed to BioMax MR film (Kodak) to record experimental results.

p3 locus = test: Ms-SNuPE quantitation of DNA methylation in 10T1/2 cells; assay type: cell-based, mouse; settings: 24 hours, control 86
Experimental: as §1, §2
P3: 95° C. for 2 minutes, 95° C. for 1 minute, 50° C. for 50 seconds, and 72° C. for 1 minute for 40 cycles, with a final extension at 72° C. for 10 minutes.
as §3, §4

p16 promoter = test: Ms-SNuPE quantitation of DNA methylation in T24 cells, p16 promoter; assay type: cell-based, human; settings: control 96
Experimental: as §1, §2
p16 promoter/exon 1: 94° C. for 3 minutes, 94° C. for 45 seconds, 67° C. for 45 seconds, and 72° C. for 45 seconds for 40 cycles, with a final extension step at 72° C. for 10 minutes.
as §3, §4

[2] = Body weight of tumor-bearing BALB/c nu/nu mice; assay type: in vivo
Experimental: EJ6 cells (5×10^5/injection) were inoculated subcutaneously into the right and left flanks of male BALB/c nu/nu mice at 4-6 weeks of age (available from Harlan, San Diego, Calif.). Zebularine treatments were initiated after macroscopic (50-200 mm 3) tumor formation (4-6 weeks later). Zebularine (500 mg/kg or 1000 mg/kg) was administered daily via intraperitoneal injection or oral gauage feeding over a period of 18 days. Control mice received 0.45% saline administered via intraperitoneal injection or oral gavage feeding over a period of 18 days. Mice (n=30) were divided into five groups (control group, 500 mg/kg intraperitoneal injection, 500 mg/kg oral, 1000 mg/kg intraperitoneal injection, and 1000 mg/kg oral). Each treatment group consisted of a minimum of five animals (at least 6 tumors per group).
Similarly, each group of mice (n=5 or 6) was weighed at the indicated time points, and average body weight was plotted against days after initial treatment in FIG. 14.

[3] = test system: human p16 cDNA in EJ6 tumor cells; test: RT-PCR of p16 gene expression in EJ6 tumor cells growing in mice; assay type: in vivo; settings: EJ6 tumor cells in BALB/c nu/nu mice after treatment
Experimental: Total RNA was isolated from the tumors to analyze gene expression using conventional methods. DNA also was isolated, to measure the methylation status of p16 promoter by Ms-SnuPE as described below.
GAPDH mRNA levels were measured to control for the quantity and integrity of the input RNA. The control group represents tumors obtained from mice mock-treated either with 0.45% NaCl via intraperitoneal injection or oral gavage feeding. Results from one of six similar independent tumors are shown for each group in FIG. 15.

With `Nc1ncn([C@@H]2O[C@H](CO)[C@@H](O)[C@H]2O)c(=O)n1` [5-Aza-CR, 5-azacytidine, reference compound] the “effect on DNA methylation (Southern blot)” value [1] was “inhibits DNA methylation globally”, the “Relative p16 Exon 2 De-methylation (%)” value (p16 exon 2; 3 μM, 24 hrs) was 8 +/− 2% and the “p16 Exon 2 Methylation (%)” value (p16 exon 2; 3 μM, 24 hrs) was 88 +/− 2%. The “Relative p16 Exon 2 De-methylation (%)” value (p16 exon 2; 10 μM, 24 hrs) was 15 +/− 1%, the “p16 Exon 2 Methylation (%)” value (p16 exon 2; 10 μM, 24 hrs) was 82 +/− 1% and the “Relative p16 Exon 2 De-methylation (%)” value (p16 exon 2; 30 μM, 24 hrs) was 25%. For the same compound, the “p16 Exon 2 Methylation (%)” value (p16 exon 2; 30 μM, 24 hrs) was 72 +/− 2%, the “Relative p16 Exon 2 De-methylation (%)” value (p16 exon 2; 100 μM, 24 hrs) was 29% and the “p16 Exon 2 Methylation (%)” value (p16 exon 2; 100 μM, 24 hrs) was 68 +/− 3%. For the same compound, the “% Methylation” value (p3 locus; 1 μM) was 65 +/− 2%, the “% Methylation” value (p3 locus; 3 μM) was 59% and 59 +/− 6% and the “p16 Promoter Methylation (%)” value (p16 promoter; 3 μM, 24 hrs) was 91% and 91 +/− 1%. The “p16 Promoter Methylation (%)” value (p16 promoter; 10 μM, 24 hrs) was 83 +/− 2%, the “p16 Promoter Methylation (%)” value (p16 promoter; 30 μM, 24 hrs) was 73 +/− 2% and the “p16 Promoter Methylation (%)” value (p16 promoter; 100 μM, 24 hrs) was 68% and 68 +/− 2%.

In the case of `O=c1ncccn1[C@@H]1O[C@H](CO)[C@@H](O)[C@H]1O` [Zebularine, 1-β-ribofuranosyl-1,2-dihydropyrimidin-2-one], the “effect on DNA methylation (Southern blot)” value [1] is reported as “inhibits DNA methylation globally”, the “Relative p16 Exon 2 De-methylation (%)” value (p16 exon 2; 300 μM, 24 hrs) is reported as 7 +/− 1% and the “p16 Exon 2 Methylation (%)” value (p16 exon 2; 300 μM, 24 hrs) is reported as 89 +/− 1%. The “Relative p16 Exon 2 De-methylation (%)” value (p16 exon 2; 300 μM, 48 hrs) was 16 +/− 2%, the “p16 Exon 2 Methylation (%)” value (p16 exon 2; 300 μM, 48 hrs) was 81 +/− 2% and the “Relative p16 Exon 2 De-methylation (%)” value (p16 exon 2; 500 μM, 24 hrs) was 9 +/− 1%. The “p16 Exon 2 Methylation (%)” value (p16 exon 2; 500 μM, 24 hrs) was 87 +/− 1%, the “Relative p16 Exon 2 De-methylation (%)” value (p16 exon 2; 500 μM, 48 hrs) was 18 +/− 2% and the “p16 Exon 2 Methylation (%)” value (p16 exon 2; 500 μM, 48 hrs) was 79 +/− 2%. For the same compound, the “Relative p16 Exon 2 De-methylation (%)” value (p16 exon 2; 1000 μM, 24 hrs) was 20 +/− 2%, the “p16 Exon 2 Methylation (%)” value (p16 exon 2; 1000 μM, 24 hrs) was 77 +/− 2% and the “Relative p16 Exon 2 De-methylation (%)” value (p16 exon 2; 1000 μM, 48 hrs) was 24 +/− 1%. The “p16 Exon 2 Methylation (%)” value (p16 exon 2; 1000 μM, 48 hrs) was 73 +/− 1%, the weight loss ([2]; all treated groups: 500 or 1000 mg/kg daily, intraperitoneal or oral, 18 days) was “weight loss was minimal” and the greatest weight loss ([2]; group treated with 1000 mg/kg) was roughly 7%. For the same compound, the “% Methylation” value (p3 locus; 10 μM) was 75 +/− 2%, the “% Methylation” value (p3 locus; 30 μM) was 58% and 58 +/− 1% and the “p16 gene expression in vivo (RT-PCR)” value [3] was “Reactivation of p16 gene expression”. For the same compound, the “p16 Promoter Methylation (%)” value (p16 promoter; 300 μM, 24 hrs) was 91% and 91 +/− 1%, the “p16 Promoter Methylation (%)” value (p16 promoter; 300 μM, 48 hrs) was 80% and 80 +/− 1% and the “p16 Promoter Methylation (%)” value (p16 promoter; 500 μM, 24 hrs) was 85% and 85 +/− 1%. The “p16 Promoter Methylation (%)” value (p16 promoter; 500 μM, 48 hrs) was 77% and 77 +/− 2%, the “p16 Promoter Methylation (%)” value (p16 promoter; 1000 μM, 24 hrs) was 72% and 72 +/− 2% and the “p16 Promoter Methylation (%)” value (p16 promoter; 1000 μM, 48 hrs) was 68% and 68 +/− 2%.

Source: patent US8207142B2, “Inhibitor of DNA methylation” (priority 2001, dated 2012)
